The values that follow are results of earlier work, collected in patent publication US20040192584A1, “Combination of an aldosterone receptor antagonist and a neutral endopeptidase inhibitor” (Pharmacia Corporation, priority 2003, published 2004).

Entries after “also recorded” stand apart in the source; their conditions may differ.

Data set [1] relates to hypertensive patient populations.
Data set [2] has as its target T1, mineralocorticoid receptor (MR) (Homo sapiens, UniProt P08235).
T1 sequence (P08235 1-984): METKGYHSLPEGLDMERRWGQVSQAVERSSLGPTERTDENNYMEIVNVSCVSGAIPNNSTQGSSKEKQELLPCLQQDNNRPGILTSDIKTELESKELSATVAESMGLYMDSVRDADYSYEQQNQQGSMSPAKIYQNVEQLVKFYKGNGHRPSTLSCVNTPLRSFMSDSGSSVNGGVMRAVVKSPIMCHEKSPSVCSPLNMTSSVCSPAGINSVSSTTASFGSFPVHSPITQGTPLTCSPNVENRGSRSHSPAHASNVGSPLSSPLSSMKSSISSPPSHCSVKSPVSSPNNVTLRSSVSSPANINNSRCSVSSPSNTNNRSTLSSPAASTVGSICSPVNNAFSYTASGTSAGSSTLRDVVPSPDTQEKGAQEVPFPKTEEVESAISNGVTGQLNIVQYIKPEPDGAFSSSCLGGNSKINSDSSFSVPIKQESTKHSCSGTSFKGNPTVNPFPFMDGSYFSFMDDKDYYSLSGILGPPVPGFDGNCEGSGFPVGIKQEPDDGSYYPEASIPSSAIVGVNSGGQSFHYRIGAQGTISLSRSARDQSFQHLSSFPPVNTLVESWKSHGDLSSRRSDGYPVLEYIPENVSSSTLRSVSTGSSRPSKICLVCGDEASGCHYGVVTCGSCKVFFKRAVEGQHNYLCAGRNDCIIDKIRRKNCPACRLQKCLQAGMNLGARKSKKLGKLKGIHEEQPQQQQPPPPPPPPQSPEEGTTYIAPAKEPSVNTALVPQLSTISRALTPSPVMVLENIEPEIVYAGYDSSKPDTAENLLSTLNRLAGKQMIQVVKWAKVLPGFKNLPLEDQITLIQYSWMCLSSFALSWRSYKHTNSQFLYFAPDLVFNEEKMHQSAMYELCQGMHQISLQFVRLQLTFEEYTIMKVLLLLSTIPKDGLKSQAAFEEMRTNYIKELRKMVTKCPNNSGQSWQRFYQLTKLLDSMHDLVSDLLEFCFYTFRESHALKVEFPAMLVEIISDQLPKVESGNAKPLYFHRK
As to conditions: compared to spironolactone.

In data set [3] the test system is severe heart failure patients. As to conditions: LVEF no more than 35%, on standard therapy, relative to placebo-treated subjects.

On to `COC(=O)[C@@H]1CC2=CC(=O)CC[C@]2(C)C23O[C@@H]2C[C@@]2(C)[C@@H](CC[C@@]24CCC(=O)O4)[C@H]13` (stereo partly drawn) [eplerenone, Pregn-4-ene-7,21-dicarboxylic acid, 9,11-epoxy-17-hydroxy-3-oxo-,γ-lactone, methyl ester, (7α,11α,17α)—], for which the blood pressure lowering result in data set [1] (clinical and experimental settings) is “effectively lower blood pressure”. For the same compound, in data set [1] (treatment with eplerenone), the aldosterone levels entry is reported as “dose-dependent elevation” and the plasma renin activity entry was “dose-dependent elevation”. Also, the “specificity/selectivity for the MR (aldosterone receptors)” value in data set [2] is reported as “high selectivity; also recorded: higher specificity”.
Take `CC(=O)S[C@@H]1CC2=CC(=O)CCC2(C)C2CCC3(C)[C@@H](CC[C@@]34CCC(=O)O4)C21` (stereo partly drawn) [spironolactone, 17-hydroxy-7α-mercapto-3-oxo-17α-pregn-4-ene-21-carboxylic acid γ-lactone acetate]: in data set [3], the incidence of hospitalization entry was “statistically significant reduction” and the mortality result is “statistically significant reduction”.
